The record followed here is article PMC3794980, “Identification of Conserved and HLA Promiscuous DENV3 T-Cell Epitopes” (PLoS Neglected Tropical Diseases, 2013).

Among the targets are DRB5*0101 (Homo sapiens, UniProt P01903+Q30154); DRB4*0101 (Homo sapiens, UniProt P01903+P13762, G164S); DRB3*0101 (Homo sapiens, UniProt P01903+P79483).
What all share (assay): biochemical
Holding throughout (assay type): binding

By IC50 is commonly meant the concentration that gives 50% inhibition. High values mean weaker potency, low ones greater potency. As for `CC[C@H](C)[C@H](NC(=O)[C@H](CC(C)C)NC(=O)[C@H](CCCCN)NC(=O)CNC(=O)[C@H](CO)NC(=O)[C@@H](NC(=O)[C@@H](NC(=O)[C@@H](NC(=O)[C@@H](NC(=O)[C@H](CCCNC(=N)N)NC(=O)[C@H](CC(C)C)NC(=O)[C@@H](N)CO)[C@@H](C)O)[C@@H](C)O)[C@@H](C)O)C(C)C)C(=O)N[C@@H](Cc1c[nH]cn1)C(=O)N[C@@H](CCC(=O)O)C(=O)N[C@@H](Cc1c[nH]c2ccccc12)C(=O)O` [NS1 297-311], the values for the IC50 at DRB5*0101, against DRB4*0101 and on DRB3*0101 were 2.11 µM, 5.31 µM and 12.4 µM, respectively.
For `CC(C)C[C@H](NC(=O)[C@H](CCCNC(=N)N)NC(=O)[C@H](CCCCN)NC(=O)CNC(=O)[C@@H](N)CC(N)=O)C(=O)N[C@@H](CCC(=O)O)C(=O)N1CCC[C@H]1C(=O)N[C@@H](CC(N)=O)C(=O)N[C@@H](Cc1c[nH]c2ccccc12)C(=O)N[C@@H](C)C(=O)N[C@@H](CO)C(=O)N[C@H](C(=O)N[C@@H](CCCCN)C(=O)N[C@@H](CCCCN)C(=O)N[C@@H](CC(=O)O)C(=O)O)C(C)C` [NS3 61-75], the IC50 against DRB5*0101 came out at 0.143 µM; at DRB4*0101 it was 7.03 µM; at DRB3*0101, 1.2 µM.
The like results for `CC[C@H](C)[C@H](NC(=O)[C@H](C)NC(=O)CNC(=O)[C@@H](NC(=O)[C@H](CCC(=O)O)NC(=O)CNC(=O)[C@@H](NC(=O)[C@@H](NC(=O)[C@@H](NC(=O)[C@H](CCC(N)=O)NC(=O)[C@H](Cc1ccccc1)NC(=O)[C@@H](NC(=O)CNC(=O)[C@@H]1CCCN1)[C@@H](C)O)[C@@H](C)O)[C@@H](C)O)[C@@H](C)O)[C@@H](C)CC)C(=O)N[C@@H](C)C(=O)O` [NS3 113-127] were, in that order, 2.1 µM, 1.84 µM and 3.07 µM.
The like results for `CC[C@H](C)[C@H](NC(=O)[C@H](C)NC(=O)CNC(=O)[C@@H](NC(=O)[C@H](CCC(=O)O)NC(=O)CN)[C@@H](C)CC)C(=O)N[C@@H](C)C(=O)N[C@@H](CC(C)C)C(=O)N[C@@H](CC(=O)O)C(=O)N[C@@H](Cc1ccccc1)C(=O)N[C@@H](CCCCN)C(=O)N1CCC[C@H]1C(=O)NCC(=O)N[C@H](C(=O)N[C@@H](CO)C(=O)O)[C@@H](C)O` [NS3 121-135] were, in that order, 11.9 µM, 0.04 µM and 2.21 µM.
In the case of `CC[C@H](C)[C@H](NC(=O)[C@H](Cc1ccc(O)cc1)NC(=O)CNC(=O)[C@H](CCCNC(=N)N)NC(=O)[C@H](C)N)C(=O)N[C@@H](CO)C(=O)N[C@H](C(=O)N[C@@H](CCCNC(=N)N)C(=O)N[C@H](C(=O)NCC(=O)N[C@@H](CCSC)C(=O)NCC(=O)N[C@@H](CCC(=O)O)C(=O)N[C@@H](C)C(=O)N[C@@H](C)C(=O)O)C(C)C)[C@@H](C)O` [NS3 297-311], the values for the IC50 against DRB5*0101, at DRB4*0101 and against DRB3*0101 were 3.45 µM, 7.23 µM and 8.65 µM, respectively.
With `CC[C@H](C)[C@H](NC(=O)[C@@H](NC(=O)[C@H](CCCCN)NC(=O)[C@H](CCCCN)NC(=O)CNC(=O)[C@H](CC(N)=O)NC(=O)[C@H](CCCCN)NC(=O)[C@H](CCCNC(=N)N)NC(=O)[C@H](CC(C)C)NC(=O)[C@H](CS)NC(=O)[C@H](CC(N)=O)NC(=O)[C@H](C)N)C(C)C)C(=O)N[C@@H](CCC(N)=O)C(=O)N[C@@H](CC(C)C)C(=O)N[C@@H](CO)C(=O)O` [NS3 373-387], the results for the IC50 at DRB5*0101, against DRB4*0101 and at DRB3*0101 were 3.54 µM, 1.63 µM and 3.43 µM, respectively.
In the case of `CC(C)C[C@H](NC(=O)[C@H](CCCCN)NC(=O)[C@@H](NC(=O)[C@H](CCCCN)NC(=O)[C@H](CCC(N)=O)NC(=O)[C@H](Cc1ccc(O)cc1)NC(=O)[C@H](CCC(=O)O)NC(=O)[C@@H](NC(=O)[C@H](CC(=O)O)NC(=O)[C@H](Cc1ccccc1)NC(=O)[C@@H](NC(=O)[C@@H](N)CCCCN)[C@@H](C)O)[C@@H](C)O)[C@@H](C)O)C(=O)N[C@@H](CC(N)=O)C(=O)N[C@@H](CC(=O)O)C(=O)N[C@@H](Cc1c[nH]c2ccccc12)C(=O)O` [NS3 389-403], the IC50 on DRB5*0101 came to 2.33 µM; at DRB4*0101, 9.91 µM; against DRB3*0101, 4.53 µM.
For the molecule `CC[C@H](C)[C@H](NC(=O)[C@@H](NC(=O)[C@H](CCCNC(=N)N)NC(=O)[C@H](CCC(=O)O)NC(=O)[C@@H]1CCCN1C(=O)CNC(=O)[C@H](CC(=O)O)NC(=O)[C@@H](NC(=O)[C@H](CC(C)C)NC(=O)[C@@H](NC(=O)[C@@H](NC(=O)[C@@H]1CCCN1C(=O)[C@H](CCCCN)NC(=O)[C@H](CC(C)C)NC(=O)[C@@H](N)CS)C(C)C)[C@@H](C)CC)[C@@H](C)O)C(C)C)C(=O)O` [NS3 429-443], the IC50 amounted to 13.2 µM against DRB5*0101, 1.21 µM against DRB4*0101 and 0.0057 µM on DRB3*0101.
The matching figures for `CC[C@H](C)[C@H](NC(=O)[C@@H](N)C(C)C)C(=O)N[C@@H](CC(C)C)C(=O)N[C@H](C(=O)N[C@@H](CC(=O)O)C(=O)NCC(=O)N1CCC[C@H]1C(=O)N[C@@H](CCC(=O)O)C(=O)N[C@@H](CCCNC(=N)N)C(=O)N[C@H](C(=O)N[C@H](C(=O)N[C@@H](CC(C)C)C(=O)N[C@@H](C)C(=O)NCC(=O)N1CCC[C@H]1C(=O)O)[C@@H](C)CC)C(C)C)[C@@H](C)O` [NS3 433-447]: 8.29 µM, 3.51 µM and 0.134 µM.
The matching figures for `CC[C@H](C)[C@H](NC(=O)CNC(=O)[C@H](CO)NC(=O)[C@H](CCCCN)NC(=O)[C@H](CCCCN)NC(=O)[C@H](Cc1ccc(O)cc1)NC(=O)[C@H](CC(C)C)NC(=O)[C@H](CC(=O)O)NC(=O)[C@H](Cc1ccccc1)NC(=O)[C@H](CCC(=O)O)NC(=O)[C@@H](N)CCCCN)C(=O)N[C@H](C(=O)N[C@@H](CCC(=O)O)C(=O)N[C@H](C(=O)N[C@@H](CC(=O)O)C(=O)N[C@@H](CCCNC(=N)N)C(=O)N[C@H](C(=O)O)[C@@H](C)O)C(C)C)[C@@H](C)O` [NS5 23-39]: 10.1 µM, 3.43 µM and 5.8 µM.
Consider `CC[C@H](C)[C@H](NC(=O)[C@H](CCC(=O)O)NC(=O)CNC(=O)[C@H](CCCNC(=N)N)NC(=O)[C@H](CCCCN)NC(=O)[C@@H](N)CC(C)C)C(=O)N[C@H](C(=O)N[C@@H](Cc1c[nH]cn1)C(=O)N[C@@H](Cc1c[nH]cn1)C(=O)N[C@@H](C)C(=O)N[C@H](C(=O)N[C@@H](CO)C(=O)N[C@@H](CCCNC(=N)N)C(=O)NCC(=O)N[C@@H](CO)C(=O)N[C@@H](C)C(=O)N[C@@H](CCCCN)C(=O)O)C(C)C)[C@@H](C)O` [NS5 45-61], for which the IC50 against DRB5*0101 amounted to 0.449 µM; against DRB4*0101, 0.0085 µM; on DRB3*0101 it was 7.5 µM.
On to `CC[C@H](C)[C@H](NC(=O)[C@H](CS)NC(=O)[C@H](Cc1ccccc1)NC(=O)[C@H](CCC(N)=O)NC(=O)[C@@H](N)CC(N)=O)C(=O)N[C@@H](CCCCN)C(=O)N[C@H](C(=O)N[C@@H](CC(C)C)C(=O)N[C@@H](CC(N)=O)C(=O)N1CCC[C@H]1C(=O)N[C@@H](Cc1ccc(O)cc1)C(=O)N[C@@H](CCSC)C(=O)N1CCC[C@H]1C(=O)N[C@H](C(=O)N[C@H](C(=O)N[C@H](C(=O)N[C@@H](CCC(=O)O)C(=O)O)[C@@H](C)CC)C(C)C)[C@@H](C)O)C(C)C` [NS5 175-191], for which the IC50 at DRB5*0101 was found to be 0.722 µM; at DRB4*0101 it was 6.64 µM; on DRB3*0101 it was 1.34 µM.
